US7923004B2 (priority 2006, dated 2011)

How the values were obtained:
Assay type in all cases: cell-based
[1] = tested on: HCV genotype 1b replicon (Huh-Luc-Neo cells); test: HCV Replicon Luciferase Assay; conditions: Hepatitis C virus, Huh-Luc-Neo cells, genotype 1b, 72 h, read-out: HCV-1b Replicon Inhibition*, Luciferase (EC50)
[2] = Cell Titer-Glo Cell Viability Assay, genotype 1b cells; conditions: human, Huh-Luc-Neo (HCV genotype 1b replicon) cells, HCV genotype 1b assays, read-out: Cytotoxicity* (CC50)
Procedure: Cell Seeding and Compound Treatment: Huh-Luc-Neo (Genotype 1b) or En5-3/Htat2ANeo (Genotype 1a) cells are seeded at 5000-7000/well in an opaque-walled 96 plate with Growth Medium (DMEM phenol red free+PS+2 mM glutamine; 100 ul/well). The compounds to be tested for inhibition of cell viability are added to the experimental wells so as to generate a dose response curve (8-9 concentrations, 10 μl/well at 10× assay concentration) and the cells are then incubated (5% CO2, 37° C.) for 72 h.
Reagent Preparation and Assay: After completion of the incubation period the cell viability measurements are made using the Cell Titre Glo Assay (Promega) according to the manufacturer's recommended protocol. Briefly, the CellTiter-Glo Buffer is thawed and equilibrated to room temperature prior to use. The lyophilized CellTiter-Glo Substrate is also equilibrated to room temperature prior to use. 10 ml of CellTiter-Glo Buffer is then transferred to 1 vial of CellTiter-Glo Substrate and mixed gently with a Vortex. 100 μl of CellTiter-Glo Assay reagent (CellTiter-Glo Buffer+CellTiter-Glo Substrate Mixture) is added to each well. The well contents are mixed for 5 min. on an orbital shaker at room temperature to induce cell lysis and the luminescence is then measured using a luminometer.

[3] = tested on: HCV genotype 1b replicon (Huh-Luc-Neo cells); test: HCV Replicon RNA (Taqman) Assay, genotype 1b; conditions: Hepatitis C virus, Huh-Luc-Neo cells, genotype 1b, HCV RNA, 72 h, read-out: HCV-1b Replicon Inhibition*, Taqman (EC50)

Row | SMILES | EC50 [1] | CC50 at 72 h [2] | EC50 [3] | EC50 ([1]; GETYPE1B) | EC50 ([3]; GETYPE1B)
1 | Cn1cc(C#Cc2ccc(NC(=O)[C@@H]3COCCN3C(=O)[C@H](NC(=O)OC(C)(C)C)c3ccsc3)cc2)c(-c2cc(C#N)ccc2O)n1 [Compound 34] | < 1000 nM | > 100000 nM | < 1000 nM | – | –
2 | Cc1ccc(O)c(-c2nn(C)cc2C#Cc2ccc(NC(=O)C3CCCCN3C(=O)[C@H](Cc3ccc(F)cc3)NC(=O)OC(C)(C)C)cc2)c1 (stereo partly drawn) [Compound 5] | < 1000 nM | > 100000 nM | < 1000 nM | – | –
3 | Cc1ccc(O)c(-c2nn(C)cc2C#Cc2ccc(NC(=O)C3CCCCN3C(=O)[C@H](Cc3ccc(Cl)cc3Cl)NC(=O)OC(C)(C)C)cc2)c1 (stereo partly drawn) [Compound 6] | < 1000 nM | > 100000 nM | < 1000 nM | – | –
4 | Cn1cc(C#Cc2ccc(NC(=O)[C@H]3CCCCN3C(=O)C(NC(=O)OC(C)(C)C)c3ccccc3)cc2)c(-c2cc(Br)ccc2O)n1 (stereo partly drawn) [Example 20] | < 1000 nM | 10000 to 100000 nM | < 1000 nM | – | –
5 | Cc1ccc(O)c(-c2nn(C)cc2C#Cc2ccc(NC(=O)C3CCCCN3C(=O)[C@]3(NC(=O)OC(C)(C)C)C[C@@H]3c3ccccc3)cc2)c1 (stereo partly drawn) [Example 21] | < 1000 nM | 10000 to 100000 nM | < 1000 nM | – | –
6 | CCOC(=O)c1ccc(O)c(-c2nn(C)cc2C#Cc2ccc(NC(=O)[C@@H]3CCCCN3C(=O)[C@H](NC(=O)OC(C)(C)C)c3ccccc3)cc2)c1 [Compound 30] | < 1000 nM | > 100000 nM | < 1000 nM | – | –
7 | COc1ccccc1[C@@H](NC(=O)OC(C)(C)C)C(=O)N1CCOC[C@H]1C(=O)Nc1ccc(C#Cc2cn(C)nc2-c2cc(C#N)ccc2O)cc1 [Compound 22A] | – | > 100000 nM | – | < 1000 nM | < 1000 nM
8 | Cc1ccc(O)c(-c2nn(C)cc2C#Cc2ccc(NC(=O)C3CCCCN3C(=O)[C@H](CCc3ccccc3)NC(=O)OC(C)(C)C)cc2)c1 (stereo partly drawn) [Compound 7A] | – | 10000 to 100000 nM | – | < 1000 nM | < 1000 nM
9 | Cn1cc(C#Cc2ccc(NC(=O)[C@@H]3COCCN3C(=O)[C@H](NC(=O)OC(C)(C)C)c3ccccc3)cc2)c(-c2cc(C#N)ccc2O)n1 [Compound 37] | < 1000 nM | > 100000 nM | < 1000 nM | – | –
10 | CC(C)(C)OC(=O)N[C@@H](C(=O)N1CCCC[C@H]1C(=O)Nc1ccc(C#Cc2c[nH]nc2-c2cc(Cl)ccc2O)cc1)c1ccccc1 [Compound 38] | < 1000 nM | > 100000 nM | < 1000 nM | – | –
11 | Cn1cc(C#Cc2ccc(NC(=O)[C@@H]3CCCCN3C(=O)[C@H](NC(=O)OC(C)(C)C)c3ccccc3)cc2)c(-c2cc(Br)ccc2O)n1 [Compound 22] | < 1000 nM | 10000 to 100000 nM | < 1000 nM | – | –
12 | Cc1ccc(O)c(-c2nn(C)cc2C#Cc2ccc(NC(=O)[C@@H]3CN(C(=O)C(F)(F)F)CCN3C(=O)[C@H](NC(=O)OC(C)(C)C)c3ccccc3)cc2)c1 [Compound 41] | < 1000 nM | > 100000 nM | < 1000 nM | – | –
13 | Cc1ccc(O)c(-c2nn(C)cc2C#Cc2ccc(NC(=O)C3CCCCN3C(=O)C(c3ccccc3)N(C)C(=O)OC(C)(C)C)cc2)c1 (stereo not drawn) [Compound 56] | 1000 to 10000 nM | 10000 to 100000 nM | 1000 to 10000 nM | – | –
14 | Cc1ccc(O)c(-c2nn(C)cc2C#Cc2ccc(NC(=O)C3CCCCN3C(=O)[C@H](Cc3ccc(Br)cc3)NC(=O)OC(C)(C)C)cc2)c1 (stereo partly drawn) [Compound 26] | < 1000 nM | 10000 to 100000 nM | < 1000 nM | – | –
15 | Cc1ccc(O)c(-c2nn(C)cc2C#Cc2ccc(NC(=O)[C@@H]3CCCCN3C(=O)[C@H](NC(=O)OC(C)(C)C)c3ccccc3)cc2)c1 [Compound 16] | < 1000 nM | > 100000 nM | < 1000 nM | – | –
16 | Cc1ccc(O)c(-c2nn(C)cc2C#Cc2ccc(NC(=O)[C@@H]3CCCCN3C(=O)[C@H](NC(=O)OC(C)(C)C)c3cccs3)cc2)c1 [Example 50] | < 1000 nM | > 100000 nM | < 1000 nM | – | –

Row | SMILES | EC50 [1] | CC50 at 72 h [2] | EC50 [3] | EC50 ([1]; GETYPE1B) | EC50 ([3]; GETYPE1B)
17 | Cc1ccc(O)c(-c2nn(C)cc2C#Cc2ccc(NC(=O)C3CCCCN3C(=O)[C@H](Cc3ccccc3)NC(=O)CC3CCCC3)cc2)c1 (stereo partly drawn) [Compound 7] | < 1000 nM | > 100000 nM | < 1000 nM | – | –
18 | CC(=O)Oc1ccc(C)cc1-c1nn(C)cc1C#Cc1ccc(NC(=O)C2CCCCN2S(=O)(=O)c2cccs2)cc1 (stereo not drawn) [Compound 63] | 1000 to 10000 nM | > 100000 nM | 1000 to 10000 nM | – | –
19 | Cc1ccc(O)c(-c2nn(C)cc2C#Cc2ccc(NC(=O)C3CCCCN3C(=O)[C@H](Cc3cccnc3)NC(=O)OC(C)(C)C)cc2)c1 (stereo partly drawn) [Compound 3] | < 1000 nM | > 100000 nM | < 1000 nM | – | –
20 | Cn1cc(C#Cc2ccc(NC(=O)[C@@H]3COCCN3C(=O)[C@H](NS(=O)(=O)C3CC3)c3ccccc3)cc2)c(-c2cc(Cl)ccc2O)n1 [Compound 55] | < 1000 nM | 10000 to 100000 nM | < 1000 nM | – | –
21 | COc1ccc(C[C@H](NC(=O)OC(C)(C)C)C(=O)N2CCCCC2C(=O)Nc2ccc(C#Cc3cn(C)nc3-c3cc(C)ccc3O)cc2)cc1 (stereo partly drawn) [Compound 4] | < 1000 nM | < 1000 nM | < 1000 nM | – | –
22 | Cc1ccc(O)c(-c2nn(C)cc2C#Cc2ccc(NC(=O)C3CCCCN3C(=O)[C@H](Cc3ccccc3)N(C)C(=O)OC(C)(C)C)cc2)c1 (stereo partly drawn) [Example 19] | < 1000 nM | 10000 to 100000 nM | < 1000 nM | – | –
23 | Cc1ccc(O)c(-c2nn(C)cc2C#Cc2ccc(NC(=O)C3CCCCN3C(=O)[C@H](Cc3ccccc3)NC(=O)CC3CCCCC3)cc2)c1 (stereo partly drawn) [Compound 9] | < 1000 nM | 10000 to 100000 nM | < 1000 nM | – | –
24 | Cn1cc(C#Cc2ccc(NC(=O)[C@@H]3CCCCN3C(=O)[C@H](NC(=O)OC(C)(C)C)c3cccs3)cc2)c(-c2cc(Br)ccc2O)n1 [Example 48] | < 1000 nM | > 100000 nM | < 1000 nM | – | –
25 | Cc1ccc(O)c(-c2nn(C)cc2C#Cc2ccc(NC(=O)C3CCCCN3C(=O)[C@H](Cc3ccccc3)NC(=O)CC(C)(C)C)cc2)c1 (stereo partly drawn) [Compound 8] | < 1000 nM | 10000 to 100000 nM | < 1000 nM | – | –
26 | Cc1ccc(O)c(-c2nn(C)cc2C#Cc2ccc(NC(=O)C3CCCCN3C(=O)[C@H](Cc3ccccc3)NC(=O)C3CCCCC3)cc2)c1 (stereo partly drawn) [Compound 10] | < 1000 nM | 10000 to 100000 nM | < 1000 nM | – | –
27 | Cc1ccc(O)c(-c2nn(C)cc2C#Cc2ccc(NC(=O)[C@@H]3CNCCN3C(=O)[C@H](NC(=O)OC(C)(C)C)c3ccccc3)cc2)c1 [Compound 27A] | – | 10000 to 100000 nM | – | < 1000 nM | < 1000 nM
28 | Cc1ccc(O)c(-c2nn(C)cc2C#Cc2ccc(NC(=O)[C@H]3CS(=O)(=O)CCN3C(=O)[C@H](NC(=O)OC(C)(C)C)c3ccccc3)cc2)c1 [Compound 46 (Table 1)] | < 1000 nM | > 100000 nM | < 1000 nM | – | –
29 | Cc1ccc(O)c(-c2nn(C)cc2C#Cc2ccc(NC(=O)C3CCCCN3C(=O)C(NC(=O)OC(C)(C)C)c3ccccc3)cc2)c1 (stereo not drawn) [Compound 1] | 1000 to 10000 nM | > 100000 nM | < 1000 nM | – | –
30 | CCOC(=O)c1ccc(O)c(-c2nn(C)cc2C#Cc2ccc(NC(=O)[C@@H]3CCCCN3C(=O)[C@H](NC(=O)OC(C)(C)C)c3ccsc3)cc2)c1 [Compound 33] | < 1000 nM | > 100000 nM | < 1000 nM | – | –
31 | Cc1ccc(O)c(-c2nn(C)cc2C#Cc2ccc(NC(=O)C3CCCCN3C(=O)[C@H](Cc3ccc(C(N)=O)cc3)NC(=O)OC(C)(C)C)cc2)c1 (stereo partly drawn) [Compound 24] | < 1000 nM | 10000 to 100000 nM | < 1000 nM | – | –
